Laboratory results from patent US4310660A, “Lincomycin compounds” (The Upjohn Company, priority 1980, dated 1982).
Counter-ions that a name gives are not always drawn. Like-named read-outs stand apart in the source and are kept apart here.

Experiments:
Format in all cases: cell-based
Clostridium bifermentans = assay: MIC vs. anaerobic bacteria, agar dilution; settings: Paraclostridium bifermentans, UC6507, UC 6507, read-out: Minimal Inhibitory Concentration (MIC)
Clostridium botulinum A = assay: microbe, parasite or virus in culture; settings: UC6506, read-out: Minimal Inhibitory Concentration (MIC)
Bacteroides fragilis = assay: MIC vs. anaerobic bacteria, agar dilution
Peptococcus magnus = assay: MIC vs. anaerobic bacteria, agar dilution; settings: Finegoldia magna, UC6258, UC 6258, read-out: Minimal Inhibitory Concentration (MIC)
Actinomyces naeslundii = assay: MIC vs. anaerobic bacteria, agar dilution; settings: UC5920, read-out: Minimal Inhibitory Concentration (MIC)
[1] = test system: Staphylococcus epidermidis; assay: MIC vs. aerobic bacteria, microplate broth-dilution (BHI)
Procedure: (§1) The Minimal Inhibitory Concentration (MIC's) of both compounds Vs. aerobic bacteria is determined using a standard microplate broth-dilution method. Brain Heart Infusion (BHI-Difco) broth medium is used, and the plates are incubated at 37° C. for 20 hrs.

Diplococcus pneumoniae = assay: as above; settings: Streptococcus pneumoniae, read-out: Minimal Inhibitory Concentration (MIC)
Procedure: as §1

Streptococcus viridans = assay: as above
Procedure: as §1

Escherichia coli = assay: as above; settings: UC45, UC 45, read-out: Minimal Inhibitory Concentration (MIC)
Procedure: as §1

Klebsiella pneumoniae = assay: as above; settings: Klebsiella pneumoniae, UC58, UC 58; read-out: Minimal Inhibitory Concentration (MIC)
Procedure: as §1

[2] = test system: Salmonella schottmuelleri; assay: as above; settings: Salmonella, UC126; UC 126; read-out: Minimal Inhibitory Concentration (MIC)
Procedure: as §1

Streptococcus pyogenes = assay: as above; settings: UC152, UC 152, read-out: Minimal Inhibitory Concentration (MIC)
Procedure: as §1

Streptococcus faecalis = assay: as above; settings: Enterococcus faecalis, UC694, UC 694; read-out: Minimal Inhibitory Concentration (MIC)
Procedure: as §1

Pseudomonas aeruginosa = assay: as above; settings: UC95, UC 95, read-out: Minimal Inhibitory Concentration (MIC)
Procedure: as §1

Proteus vulgaris = assay: as above; settings: Proteus vulgaris, UC93, UC 93; read-out: Minimal Inhibitory Concentration (MIC)
Procedure: as §1

[3] = test system: Bacteroides melaninogenicus; assay: MIC vs. anaerobic bacteria, agar dilution; settings: UC6326, UC 6326, read-out: Minimal Inhibitory Concentration (MIC)
Clostridium novyi B = assay: MIC vs. anaerobic bacteria, agar dilution; settings: UC6329, UC 6329, read-out: Minimal Inhibitory Concentration (MIC)
Procedure: (§2) The procedure for the above test is as follows: Serial two-fold dilutions of drug are prepared in 1.0 ml volumes of Schaedler Broth, and 9.0 ml of molten (47° C.) Wilkens-Chalgren Agar Medium, infra, is added to the antibiotic-supplemented broth. After mixing with the antibiotic, the agar is poured into 100 mm×20 mm petri dishes. The dishes are allowed to stand on the bench overnight prior to inoculation.
(§3) Cultures are streaked on Wilkens-Chalgren Agar, and grown for 48 hours at 37° C. in a BBL Anaerobe Jar. Growth from the plate is harvested, and a cell suspension is made in Schaedler broth to equal the turbidity of a 0.5 McFarland Standard (10^8 cells/ml). The suspension is pipetted into the wells of a Steers replicator, and approx. 1-2 μl is delivered to the surface of the agar plates. After allowing a few minutes for the inoculum to dry, the plates are placed in a BBL Anaerobe Jar (atomsphere of 85% N, 10% H, 5% CO2) and incubated at 37° C. for 72 hours.
(§4) The Minimal Inhibitory Concentration (MIC) is read as the least amount of drug that inhibits growth. A very faint film of growth, or <3 is colonies is considered negative.

Clostridium sordellii = assay: MIC vs. anaerobic bacteria, agar dilution; settings: Paraclostridium sordellii, UC6505, UC 6505, read-out: Minimal Inhibitory Concentration (MIC)
Procedure: as §2, §3, §4

Clostridium tentani = assay: MIC vs. anaerobic bacteria, agar dilution; settings: UC6521, UC 6521, read-out: Minimal Inhibitory Concentration (MIC)
Procedure: as §2, §3, §4

[4] = test system: Fusobacterium necrophorum; assay: MIC vs. anaerobic bacteria, agar dilution; settings: UC6568, UC 6568, read-out: Minimal Inhibitory Concentration (MIC)
Staphylococcus aureus = assay: MIC vs. aerobic bacteria, microplate broth-dilution (BHI); settings: Staphylococcus aureus, read-out: Minimal Inhibitory Concentration (MIC)
Clostridium perfringens = assay: microbe, parasite or virus in culture
Fusobacterium nucleatum = assay: MIC vs. anaerobic bacteria, agar dilution
Eubacterium lentum = assay: MIC vs. anaerobic bacteria, agar dilution; settings: Eggerthella lenta, UC6522, UC 6522, read-out: Minimal Inhibitory Concentration (MIC)

SMILES: CC[C@@H]1CCN[C@H](C(=O)N[C@@H]([C@H]2O[C@H](SC)[C@H](O)[C@@H](O)[C@H]2O)[C@H](C)Cl)C1 [U-57,930E, 4-Cis-ethyl-1-pipecolic acid amide of 7-Cl-MTL.HCl]
- MIC (Clostridium bifermentans): 0.06 µg/mL
- MIC (Clostridium botulinum A): ≤ 0.03 µg/mL
- MIC (Bacteroides fragilis; UC6428, UC 6428, read-out: Minimal Inhibitory Concentration (MIC)): 0.25 µg/mL
- MIC (Bacteroides fragilis; UC6513, UC 6513, read-out: Minimal Inhibitory Concentration (MIC)): 0.12 µg/mL
- MIC (Bacteroides fragilis; UC6862, UC 6862, read-out: Minimal Inhibitory Concentration (MIC)): 15.6 µg/mL
- MIC (Bacteroides fragilis; UC6864, UC 6864, read-out: Minimal Inhibitory Concentration (MIC)): 2 µg/mL
- MIC (Peptococcus magnus): 0.06 µg/mL
- MIC (Actinomyces naeslundii): 0.25 µg/mL
- MIC ([1]; UC719, UC 719, read-out: Minimal Inhibitory Concentration (MIC)): 0.2 µg/mL
- MIC ([1]; UC3389, UC 3389, read-out: Minimal Inhibitory Concentration (MIC)): 0.2 µg/mL
- MIC (Diplococcus pneumoniae; UC41, Diplococcus pneumoniae I, UC 41): ≤ 0.012 µg/mL
- MIC (Diplococcus pneumoniae; UC3213, Diplococcus pneumoniae II, UC 3213): ≤ 0.012 µg/mL
- MIC (Streptococcus viridans; UC153, UC 153, read-out: Minimal Inhibitory Concentration (MIC)): 0.05 µg/mL
- MIC (Streptococcus viridans; UC871, UC 871, read-out: Minimal Inhibitory Concentration (MIC)): ≤ 0.012 µg/mL
- MIC (Escherichia coli): > 50 µg/mL
- MIC (Klebsiella pneumoniae): > 50 µg/mL
- MIC [2]: > 50 µg/mL
- MIC (Streptococcus pyogenes): ≤ 0.012 µg/mL
- MIC (Streptococcus faecalis): 6.25 µg/mL
- MIC (Pseudomonas aeruginosa): > 50 µg/mL
- MIC (Proteus vulgaris): > 50 µg/mL
- MIC [3]: 0.06 µg/mL
- MIC (Clostridium novyi B): 0.12 µg/mL
- MIC (Clostridium sordellii): 0.5 µg/mL
- MIC (Clostridium tentani): ≤ 0.03 µg/mL
- MIC [4]: 0.06 µg/mL
- MIC (Staphylococcus aureus; UC76, S. aureus UC 76): 0.1 µg/mL
- MIC (Staphylococcus aureus; UC570, S. aureus UC 570): 0.39 µg/mL
- MIC (Staphylococcus aureus; UC571, S. aureus UC 571): 0.78 µg/mL
- MIC (Staphylococcus aureus; UC746, S. aureus UC 746): 0.05 µg/mL
- MIC (Staphylococcus aureus; UC6675, S. aureus UC 6675): 0.39 µg/mL
- MIC (Staphylococcus aureus; UC6685, S. aureus UC 6685): > 25 µg/mL
- MIC (Staphylococcus aureus; UC6686, S. aureus UC 6686): 0.2 µg/mL
- MIC (Staphylococcus aureus; UC6687, S. aureus UC 6687): 0.2 µg/mL
- MIC (Staphylococcus aureus; UC6688, S. aureus UC 6688): > 25 µg/mL
- MIC (Staphylococcus aureus; UC6689, S. aureus UC 6689): 0.78 µg/mL
- MIC (Staphylococcus aureus; UC6690, S. aureus UC 6690): 0.2 µg/mL
- MIC (Staphylococcus aureus; UC6691, S. aureus UC 6691): 0.2 µg/mL
- MIC (Staphylococcus aureus; UC6692, S. aureus UC 6692): > 25 µg/mL
- MIC (Staphylococcus aureus; UC6693, S. aureus UC 6693): 0.78 µg/mL
- MIC (Staphylococcus aureus; UC6694, S. aureus UC 6694): > 25 µg/mL
- MIC (Staphylococcus aureus; UC6695, S. aureus UC 6695): 0.39 µg/mL
- MIC (Staphylococcus aureus; UC6696, S. aureus UC 6696): 0.39 µg/mL
- MIC (Clostridium perfringens; UC247, read-out: Minimal Inhibitory Concentration (MIC)): 0.12 µg/mL
- MIC (Clostridium perfringens; UC6509, read-out: Minimal Inhibitory Concentration (MIC)): 0.12 µg/mL
- MIC (Fusobacterium nucleatum; UC6324, UC 6324, read-out: Minimal Inhibitory Concentration (MIC)): 0.06 µg/mL
- MIC (Fusobacterium nucleatum; UC6516, UC 6516, read-out: Minimal Inhibitory Concentration (MIC)): 0.12 µg/mL
- MIC (Eubacterium lentum): 1 µg/mL
